Literature values, collected in patent US20260083654A1, “PHOTOPROTECTIVE SYSTEM CONSISTING OF 4 SUNSCREENS” (PIERRE FABRE DERMO-COSMETIQUE, priority 2019, published 2026).
“And” between values parts separate entries of the source, which are not always exact repeats. Equal entries are not always repeated.

Conditions: two peaks, broad spectrum filter

absorption peaks: 310 nm and 340 nm
Structure (SMILES): CCCCC(CC)COc1ccc(-c2nc(-c3ccc(OC)cc3)nc(-c3ccc(OCC(CC)CCCC)cc3O)n2)c(O)c1 (stereo not shown) [BEMT, 2,4-bis[4-(2-ethylhexyloxy)-2-hydroxyphenyl]-6-(4-methoxyphenyl)-1,3,5-triazine]
